Reference: article PMC11289455 (Scientific Reports, 2024)
Read-outs that look alike come from different tables or passages of the source.

Key:
Type in all cases: binding
[1] = biological target: T1, α1A (alpha-1A adrenergic receptor) (Homo sapiens, UniProt P35348); test: SafetyScreen44: α1A
T1 construct: purchased Eurofins Cerep SafetyScreen44
T1 sequence (P35348 1-466): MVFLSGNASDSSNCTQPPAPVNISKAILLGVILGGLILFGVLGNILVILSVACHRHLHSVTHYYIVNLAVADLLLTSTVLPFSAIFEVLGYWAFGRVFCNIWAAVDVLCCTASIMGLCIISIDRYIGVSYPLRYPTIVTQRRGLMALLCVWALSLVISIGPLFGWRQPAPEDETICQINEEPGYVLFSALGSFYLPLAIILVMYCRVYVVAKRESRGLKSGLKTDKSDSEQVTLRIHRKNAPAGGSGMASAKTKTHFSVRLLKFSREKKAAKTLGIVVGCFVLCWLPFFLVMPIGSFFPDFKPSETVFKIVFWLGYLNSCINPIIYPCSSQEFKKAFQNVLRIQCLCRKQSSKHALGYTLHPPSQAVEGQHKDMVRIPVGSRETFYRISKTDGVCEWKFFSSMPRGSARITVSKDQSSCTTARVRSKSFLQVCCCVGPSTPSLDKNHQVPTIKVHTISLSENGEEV

[2] = biological target: T2, D1 (dopamine D1 receptor) (Homo sapiens, UniProt P21728); test: SafetyScreen44: D1
T2 construct: purchased Eurofins Cerep SafetyScreen44

[3] = biological target: T3, 5-HT2A (serotonin 2A receptor) (Homo sapiens, UniProt P28223); test: SafetyScreen44: 5-HT2A
T3 construct: purchased Eurofins Cerep SafetyScreen44

[4] = biological target: T4, Norepinephrine transporter (Homo sapiens, UniProt P23975); test: SafetyScreen44: norepinephrine transporter
T4 construct: purchased Eurofins Cerep SafetyScreen44

[5] = biological target: T5, 5-HT transporter (Homo sapiens, UniProt P31645); test: SafetyScreen44: 5-HT transporter
T5 construct: purchased Eurofins Cerep SafetyScreen44

[6] = biological target: T6, MAO-A (monoamine oxidase A) (Rattus norvegicus, UniProt P21396); test: SafetyScreen44: MAO-A
T6 construct: purchased Eurofins Cerep SafetyScreen44
T6 sequence (P21396 1-526): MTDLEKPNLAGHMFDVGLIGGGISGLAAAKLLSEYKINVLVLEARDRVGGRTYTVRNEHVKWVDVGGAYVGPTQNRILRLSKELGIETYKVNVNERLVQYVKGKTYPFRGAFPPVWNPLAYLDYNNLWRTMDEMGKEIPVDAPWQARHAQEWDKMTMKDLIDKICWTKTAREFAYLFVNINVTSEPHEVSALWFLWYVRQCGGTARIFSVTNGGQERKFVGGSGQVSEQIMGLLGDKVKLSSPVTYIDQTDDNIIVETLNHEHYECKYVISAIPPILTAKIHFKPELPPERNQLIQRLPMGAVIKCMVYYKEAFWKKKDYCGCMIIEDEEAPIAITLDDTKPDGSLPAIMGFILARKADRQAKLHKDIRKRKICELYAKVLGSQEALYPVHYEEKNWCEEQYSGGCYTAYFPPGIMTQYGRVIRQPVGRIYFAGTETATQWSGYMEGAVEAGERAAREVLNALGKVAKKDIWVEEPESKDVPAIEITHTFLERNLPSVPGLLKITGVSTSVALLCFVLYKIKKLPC

[7] = biological target: T7, α2A (alpha-2A adrenergic receptor) (Homo sapiens, UniProt P08913); test: SafetyScreen44: α2A
T7 construct: purchased Eurofins Cerep SafetyScreen44
T7 sequence (P08913 1-465): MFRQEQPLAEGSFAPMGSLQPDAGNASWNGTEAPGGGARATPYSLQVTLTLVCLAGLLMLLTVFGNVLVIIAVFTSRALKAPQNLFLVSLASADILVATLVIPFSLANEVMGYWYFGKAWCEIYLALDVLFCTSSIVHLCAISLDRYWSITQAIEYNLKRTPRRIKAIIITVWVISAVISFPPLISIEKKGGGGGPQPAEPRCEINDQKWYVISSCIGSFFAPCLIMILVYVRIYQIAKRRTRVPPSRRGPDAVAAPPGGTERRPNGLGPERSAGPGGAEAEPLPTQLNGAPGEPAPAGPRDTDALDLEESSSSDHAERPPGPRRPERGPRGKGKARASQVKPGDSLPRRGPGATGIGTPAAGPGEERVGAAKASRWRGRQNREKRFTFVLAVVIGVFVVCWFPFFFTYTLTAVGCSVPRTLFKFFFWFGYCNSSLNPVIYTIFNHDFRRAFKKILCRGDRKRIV

[8] = biological target: T8, 5-HT1A (serotonin 1A receptor) (Homo sapiens, UniProt P08908); test: SafetyScreen44: 5-HT1A
T8 construct: purchased Eurofins Cerep SafetyScreen44
T8 sequence (P08908 1-422): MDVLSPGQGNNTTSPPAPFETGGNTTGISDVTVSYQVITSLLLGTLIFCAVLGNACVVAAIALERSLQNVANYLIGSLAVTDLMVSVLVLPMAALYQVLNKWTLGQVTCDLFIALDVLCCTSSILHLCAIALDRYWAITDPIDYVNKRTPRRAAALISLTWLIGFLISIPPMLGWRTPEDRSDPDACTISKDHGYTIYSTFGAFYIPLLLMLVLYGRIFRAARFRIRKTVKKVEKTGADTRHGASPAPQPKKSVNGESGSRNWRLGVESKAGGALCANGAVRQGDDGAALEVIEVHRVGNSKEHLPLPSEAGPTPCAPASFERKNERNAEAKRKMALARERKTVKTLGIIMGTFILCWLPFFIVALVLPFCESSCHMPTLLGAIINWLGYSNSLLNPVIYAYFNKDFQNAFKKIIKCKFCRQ

[9] = biological target: T9, δ (DOP) (delta opioid receptor) (Homo sapiens, UniProt P41143); test: SafetyScreen44: δ (DOP)
T9 construct: purchased Eurofins Cerep SafetyScreen44
T9 sequence (P41143 whole entry): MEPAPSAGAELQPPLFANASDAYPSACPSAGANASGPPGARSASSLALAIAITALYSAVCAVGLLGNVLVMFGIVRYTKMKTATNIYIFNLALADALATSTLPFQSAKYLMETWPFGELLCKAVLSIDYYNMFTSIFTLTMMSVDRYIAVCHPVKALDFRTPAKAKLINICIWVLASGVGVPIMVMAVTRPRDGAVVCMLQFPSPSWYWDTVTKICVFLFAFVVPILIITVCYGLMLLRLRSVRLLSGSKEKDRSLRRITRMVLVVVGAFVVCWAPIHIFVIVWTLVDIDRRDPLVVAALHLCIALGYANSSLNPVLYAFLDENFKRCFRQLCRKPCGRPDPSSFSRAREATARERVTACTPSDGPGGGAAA

T5 sequence (P31645 whole entry): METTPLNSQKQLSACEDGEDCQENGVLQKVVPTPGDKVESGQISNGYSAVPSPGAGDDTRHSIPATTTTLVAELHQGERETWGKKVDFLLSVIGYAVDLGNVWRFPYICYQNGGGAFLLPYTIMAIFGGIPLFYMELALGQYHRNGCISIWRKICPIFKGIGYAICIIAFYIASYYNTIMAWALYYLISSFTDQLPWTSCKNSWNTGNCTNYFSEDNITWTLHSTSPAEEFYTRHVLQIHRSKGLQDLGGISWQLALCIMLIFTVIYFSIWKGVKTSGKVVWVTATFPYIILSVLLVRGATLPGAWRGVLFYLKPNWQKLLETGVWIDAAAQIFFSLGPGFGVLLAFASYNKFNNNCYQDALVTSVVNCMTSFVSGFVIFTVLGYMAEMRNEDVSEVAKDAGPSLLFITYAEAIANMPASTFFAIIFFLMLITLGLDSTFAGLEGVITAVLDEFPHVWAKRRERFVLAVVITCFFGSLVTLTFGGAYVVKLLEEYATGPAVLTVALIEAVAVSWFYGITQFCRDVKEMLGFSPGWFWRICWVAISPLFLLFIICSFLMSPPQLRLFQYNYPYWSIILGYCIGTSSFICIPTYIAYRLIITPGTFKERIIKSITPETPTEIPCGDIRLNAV
T4 sequence (P23975 whole entry): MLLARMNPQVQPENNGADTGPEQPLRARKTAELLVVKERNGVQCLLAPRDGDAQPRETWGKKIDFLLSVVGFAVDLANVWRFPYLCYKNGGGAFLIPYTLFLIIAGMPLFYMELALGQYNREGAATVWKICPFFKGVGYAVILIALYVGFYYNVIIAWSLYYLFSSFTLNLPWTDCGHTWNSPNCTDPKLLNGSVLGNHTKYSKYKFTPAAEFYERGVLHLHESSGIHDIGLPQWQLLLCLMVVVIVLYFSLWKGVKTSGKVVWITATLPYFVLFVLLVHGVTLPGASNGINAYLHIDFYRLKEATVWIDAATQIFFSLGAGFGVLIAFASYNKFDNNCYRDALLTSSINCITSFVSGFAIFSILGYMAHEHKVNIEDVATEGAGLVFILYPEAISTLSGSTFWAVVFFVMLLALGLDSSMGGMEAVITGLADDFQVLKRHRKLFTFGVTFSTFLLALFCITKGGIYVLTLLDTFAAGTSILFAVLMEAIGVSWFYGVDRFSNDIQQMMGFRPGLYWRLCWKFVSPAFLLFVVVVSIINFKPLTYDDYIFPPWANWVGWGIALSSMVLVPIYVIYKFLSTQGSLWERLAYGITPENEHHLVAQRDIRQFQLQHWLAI
T2 sequence (P21728 whole entry): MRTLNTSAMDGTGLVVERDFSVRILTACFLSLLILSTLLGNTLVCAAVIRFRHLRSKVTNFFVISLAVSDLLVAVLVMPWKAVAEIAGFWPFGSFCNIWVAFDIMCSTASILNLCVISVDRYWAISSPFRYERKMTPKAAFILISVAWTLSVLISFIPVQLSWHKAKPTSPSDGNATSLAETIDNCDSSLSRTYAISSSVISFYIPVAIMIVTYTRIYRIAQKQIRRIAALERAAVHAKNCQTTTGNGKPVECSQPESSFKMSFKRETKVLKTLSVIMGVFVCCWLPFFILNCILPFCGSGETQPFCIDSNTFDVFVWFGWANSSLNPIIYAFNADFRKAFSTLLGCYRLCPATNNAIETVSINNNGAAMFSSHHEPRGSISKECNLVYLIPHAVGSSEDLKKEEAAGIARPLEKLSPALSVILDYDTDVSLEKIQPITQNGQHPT
T3 sequence (P28223 whole entry): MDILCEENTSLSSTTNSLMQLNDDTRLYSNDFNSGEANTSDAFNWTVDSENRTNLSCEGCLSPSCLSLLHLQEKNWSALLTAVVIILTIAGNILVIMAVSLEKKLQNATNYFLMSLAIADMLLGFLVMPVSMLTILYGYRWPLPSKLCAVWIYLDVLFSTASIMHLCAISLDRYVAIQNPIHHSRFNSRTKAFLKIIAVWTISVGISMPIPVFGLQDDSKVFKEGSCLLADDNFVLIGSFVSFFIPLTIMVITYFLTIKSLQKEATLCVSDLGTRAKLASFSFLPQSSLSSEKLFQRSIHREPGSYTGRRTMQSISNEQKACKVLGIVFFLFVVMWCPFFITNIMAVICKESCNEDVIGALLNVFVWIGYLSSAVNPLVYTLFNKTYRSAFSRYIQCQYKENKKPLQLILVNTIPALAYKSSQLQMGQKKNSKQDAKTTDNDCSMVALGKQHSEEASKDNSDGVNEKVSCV

CC(=O)NCCCC[C@@H]1NC(=O)[C@H](Cc2c[nH]c3c(C)cccc23)NC(=O)[C@H]([C@@H](C)O)NC(=O)[C@H](CC(N)=O)NC(=O)[C@@H](NC(C)=O)C(C)(C)SSC(C)(C)[C@@H](C(=O)N[C@@H](Cc2ccc(OCCN)cc2)C(=O)N[C@@H](Cc2ccc3ccccc3c2)C(=O)NC2(C(=O)N[C@@H](CCC(=O)O)C(=O)N[C@@H](CC(N)=O)C(=O)N[C@@H](Cc3cccnc3)C(=O)N(C)CC(N)=O)CCOCC2)NC1=O [JNJ-77242113, S^3,1,S^3,6-cyclo[N-acetyl-3-sulfanyl-L-valyl-L-asparaginyl-L-threonyl-7-methyl-L-tryptophyl-N^6-acetyl-L-lysyl-3-sulfanyl-L-valyl-O-(2-aminoethyl)-L-tyrosyl-3-(naphthalen-2-yl)-L-alanyl-4-aminooxan-4-carbonyl-L-α-glutamyl-L-asparaginyl-3-(pyridin-3-yl)-L-alanyl-N^2-methylglycinamide]]
inhibition at 10 µM ([1]; 1st run, read-out: Percent inhibition of control ligand binding, α1A, 1st run): -4.6% | inhibition at 10 µM ([1]; 2nd run, read-out: Percent inhibition of control ligand binding, α1A, 2nd run): 5.5% | inhibition at 10 µM ([1]; mean of 2 runs, read-out: Percent inhibition of control ligand binding, α1A, Mean): 0.5% | inhibition at 10 µM ([2]; 1st run, read-out: Percent inhibition of control ligand binding, D1, 1st run): 2.2% | inhibition at 10 µM ([2]; 2nd run, read-out: Percent inhibition of control ligand binding, D1, 2nd run): 3.7% | inhibition at 10 µM ([2]; mean of 2 runs, read-out: Percent inhibition of control ligand binding, D1, Mean): 2.9% | inhibition at 10 µM ([3]; 1st run, read-out: Percent inhibition of control ligand binding, 5-HT2A, 1st run): 7% | inhibition at 10 µM ([3]; 2nd run, read-out: Percent inhibition of control ligand binding, 5-HT2A, 2nd run): 3.3% | inhibition at 10 µM ([3]; mean of 2 runs, read-out: Percent inhibition of control ligand binding, 5-HT2A, Mean): 5.1% | inhibition at 10 µM ([4]; 1st run, read-out: Percent inhibition of control ligand binding, Norepinephrine transporter, 1st run): -1.3% | inhibition at 10 µM ([4]; 2nd run, read-out: Percent inhibition of control ligand binding, Norepinephrine transporter, 2nd run): -0.6% | inhibition at 10 µM ([4]; mean of 2 runs, read-out: Percent inhibition of control ligand binding, Norepinephrine transporter, Mean): -1% | inhibition at 10 µM ([5]; 1st run, read-out: Percent inhibition of control ligand binding, 5-HT transporter, 1st run): -19.9% | inhibition at 10 µM ([5]; 2nd run, read-out: Percent inhibition of control ligand binding, 5-HT transporter, 2nd run): 1.4% | inhibition at 10 µM ([5]; mean of 2 runs, read-out: Percent inhibition of control ligand binding, 5-HT transporter, Mean): -9.2% | inhibition at 10 µM ([6]; 1st run, read-out: Percent inhibition of control ligand binding, MAO-A, 1st run): 12% | inhibition at 10 µM ([6]; 2nd run, read-out: Percent inhibition of control ligand binding, MAO-A, 2nd run): 10.3% | inhibition at 10 µM ([6]; mean of 2 runs, read-out: Percent inhibition of control ligand binding, MAO-A, Mean): 11.2% | inhibition at 10 µM ([7]; 1st run, read-out: Percent inhibition of control ligand binding, α2A, 1st run): 0.4% | inhibition at 10 µM ([7]; 2nd run, read-out: Percent inhibition of control ligand binding, α2A, 2nd run): -2.6% | inhibition at 10 µM ([7]; mean of 2 runs, read-out: Percent inhibition of control ligand binding, α2A, Mean): -1.1% | inhibition at 10 µM ([8]; 1st run, read-out: Percent inhibition of control ligand binding, 5-HT1A, 1st run): -5.6% | inhibition at 10 µM ([8]; 2nd run, read-out: Percent inhibition of control ligand binding, 5-HT1A, 2nd run): 2.8% | inhibition at 10 µM ([8]; mean of 2 runs, read-out: Percent inhibition of control ligand binding, 5-HT1A, Mean): -1.4% | inhibition at 10 µM ([9]; 1st run, read-out: Percent inhibition of control ligand binding, δ (DOP), 1st run): -7.8% | inhibition at 10 µM ([9]; 2nd run, read-out: Percent inhibition of control ligand binding, δ (DOP), 2nd run): 0.4% | inhibition at 10 µM ([9]; mean of 2 runs, read-out: Percent inhibition of control ligand binding, δ (DOP), Mean): -3.7%
